Assay results as given in patent publication US4590277A, “Acridinecarboxamide compounds” (Development Finance Corporation of New Zealand, priority 1982, dated 1986).

Legend:
[1] = Reversed phase partition chromatography (lipophilic-hydrophilic balance); assay type: physicochemical; details: linearly related to partition coefficients in 1-octanol/water, read-out: Rm
Text: Rm=a measure of the compound's lipophilic-hydrophilic balance from reversed phase partition chromatography. Rm is linearly related to partition coefficients obtained in the 1-octanol/water system.

[2] = test system: murine L1210 leukaemic cells; assay: L1210 in vitro growth inhibition; assay type: cell-based; details: Mus musculus, drug added to cultures over 70 hours, 50% reduction of counted leukaemia cells, below 1000 nM considered significant, read-out: L1210 in vitro ID50
Experimental: L1210 in vitro--The culture methods used are described in detail elsewhere (B. C. Baguley and R. Nash, Europ. J. Cancer, 17, 671-679 (1981)). Acceptable reproducibility of data depends critically upon the maintenance of optimal culture conditions. L1210 cells were initially obtained from Dr I. Wodinsky, Arthur D. Little Inc., Boston, U.S.A., under the auspices of the National Cancer Institute.
Values below 1000 nM are considered significant.

P388 tumour cells = assay: P388 in vivo, life span extension; set-up: species or system mice (F1 hybrid, DBA-2 male x C57 B1 female); key to P388 in vivo Active: Y: implies a significant value of drug activity at the stated dose; N: implies no or not statistically significant activity; details: for P388 in vivo ILS (percentage increase in life span): at optimal dose, days 1, 5 and 9, vs controls (average survival 11 days), greater than 20% statistically significant; for P388 in vivo Active: at the stated (optimal) dose
Experimental: P388 in vivo--Tumour P388 cells were obtained as frozen stocks from Mason Research Inc., U.S.A. and passaged intraperitoneally according to standard methods (Cancer Chemother. Rep. 3, Part 3, page 9, 1972) in DBA-2 mice of either sex. Groups of six Fl hybrid mice (DBA-2 male x C57 B1 female, g weight 20±1 g) were injected intraperitoneally with 10^6 cells on day 0.
O.D.--optimal drug dose, in milligrams per kilogram, administered as a solution in 0.1 ml of 30% v/v ethyl alcohol in water on days 1, 5 and 9 after tumour inoculation. The drug is administered as a soluble acid addition salt.
ILS--percentage increase in life span of treated animals over that of groups of control animals injected with tumour alone. The average survival of control mice was 11 days. Values of ILS greater than 20% are considered statistically significant.
Y. implies a significant value of drug activity at the stated dose.
N. implies no or not statistically significant activity.

Streptococcus faecalis = assay: Antibacterial activity
Alcaligenes viscolatis = assay: Antibacterial activity
Bacillus subtilis = assay: Antibacterial activity
Neisseria catarrhalis = assay: Antibacterial activity
Xanthomonas phaseoli = assay: Antibacterial activity
[3] = test system: Micrococcus lysodeikticus; assay: Antibacterial activity
Staphylococcus aureus = assay: Antibacterial activity
Sarcina lutea = assay: Antibacterial activity
Escherichia coli = assay: Antibacterial activity
Aerobacter aerogenes = assay: Antibacterial activity
[4] = cited from earlier work

SMILES | chromatographic logP [1] | IC50 [2] | P388 in vivo ILS (percentage increase in life span) (P388 tumour cells) | P388 in vivo Active (P388 tumour cells) | also measured
CN(C)CCNC(=O)c1cccc2cc3ccccc3nc12 [Compound 1] | -0.2 | 105 nM | 91% | Y | –
Cc1c2ccccc2nc2c(C(=O)NCCN(C)C)cccc12 [Compound 2, N-(2-dimethylaminoethyl)-9-methylacridine-4-carboxamide] | -0.3 | 66 nM | 14% | N | –
CNc1c2ccccc2nc2c(C(=O)NCCN(C)C)cccc12 [Compound 3] | -1.11 | 15 nM | 53% | Y | –
CN(C)CCNC(=O)c1cccc2c(N)c3ccccc3nc12 [Compound 4] | -1.11 | – | 98% | Y | Antibacterial activity (Streptococcus faecalis): active; Antibacterial activity (Alcaligenes viscolatis): active; Antibacterial activity (Bacillus subtilis): active; Antibacterial activity (Neisseria catarrhalis): active; Antibacterial activity (Xanthomonas phaseoli): active; Antibacterial activity [3]: active; Antibacterial activity (Staphylococcus aureus): active; Antibacterial activity (Sarcina lutea): active; Antibacterial activity (Escherichia coli): active; Antibacterial activity (Aerobacter aerogenes): active
CN(C)CCCNC(=O)c1cccc2c(N)c3ccccc3nc12 [Compound 5] | -0.93 | 157 nM | 0% | N | –
Nc1c2ccccc2nc2c(C(=O)NCCNCCO)cccc12 [Compound 6] | -1.06 | 77 nM | 80% | Y | –
CCN(CC)CCNC(=O)c1cccc2c(N)c3ccccc3nc12 [Compound 7] | -0.67 | 5.5 nM | 70% | Y | –
NCCNC(=O)c1cccc2c(N)c3ccccc3nc12 [Compound 8] | -1.18 | 414 nM | 71% | Y | –
CN(C)CCNC(=O)c1cc([N+](=O)[O-])cc2c(N)c3ccccc3nc12 [Compound 9] | – | 319 nM | 25% | Y | –
CN(C)CCNC(=O)c1cc(N)cc2c(N)c3ccccc3nc12 [Compound 10] | – | 162 nM | 28% | Y | –
CN(C)CCNC(=O)c1cccc2c(N)c3cccc([N+](=O)[O-])c3nc12 [Compound 11] | – | 1.3 nM | 39% | Y | –
CN(C)CCNC(=O)c1cccc2c(N)c3cccc(N)c3nc12 [Compound 12] | – | 18 nM | 58% | Y | –
Cc1cccc2c(N)c3cccc(C(=O)NCCN(C)C)c3nc12 [Compound 13] | -1.02 | 0.33 nM | 107% | Y | –
COc1cccc2c(N)c3cccc(C(=O)NCCN(C)C)c3nc12 [Compound 14] | -1.06 | 4.3 nM | 81% | Y | –
CN(C)CCNC(=O)c1cccc2c(N)c3cccc(Cl)c3nc12 [Compound 15] | – | 2.9 nM | 81% | Y | –
CN(C)CCNC(=O)c1cccc2c(N)c3ccc([N+](=O)[O-])cc3nc12 [Compound 16] | – | 0.05 nM | 23% | Y | –
CN(C)CCNC(=O)c1cccc2c(N)c3ccc(N)cc3nc12 [Compound 17] | – | 35 nM | 58% | Y | –
Cc1ccc2c(N)c3cccc(C(=O)NCCN(C)C)c3nc2c1 [Compound 18] | -0.82 | 55 nM | 20% | N | –
COc1ccc2c(N)c3cccc(C(=O)NCCN(C)C)c3nc2c1 [Compound 19] | – | 151 nM | 17% | N | –
CN(C)CCNC(=O)c1cccc2c(N)c3cc([N+](=O)[O-])ccc3nc12.Cl.Cl [Compound 20, N-(2-dimethylaminoethyl)-9-amino-7-nitroacridine-4-carboxamide dihydrochloride] | -1.29 | 104 nM | 34% | Y | –
CN(C)CCNC(=O)c1cccc2c(N)c3cc(N)ccc3nc12 [Compound 21] | -1.64 | 48 nM | 80% | Y | –
Cc1ccc2nc3c(C(=O)NCCN(C)C)cccc3c(N)c2c1 [Compound 22] | – | 605 nM | 0% | N | –
COc1ccc2nc3c(C(=O)NCCN(C)C)cccc3c(N)c2c1 [Compound 23] | – | 518 nM | 4% | N | –
CN(C)CCNC(=O)c1cccc2c(N)c3cc(Cl)ccc3nc12 [Compound 24] | – | 722 nM | 8% | N | –
CCN(CC)CCCC(C)Nc1c2ccc(Cl)cc2nc2ccc(OC)cc12 (centres unmarked) [mepacrine] | – | – | – | – | Local clinical cytostatic effects [4]: Local clinical cytostatic effects
